ChEMBL document CHEMBL1201862, “PubChem BioAssay data set” (2004)
Blank lines part the entries; values can stand above or below the compound they belong to. The source made the active and inactive calls.

What was measured:
NADPH oxidase 1 = molecular target: T1, NADPH oxidase 1 (Homo sapiens, UniProt Q9Y5S8); test: Late-stage luminescence-based cell-based dose response assay to identify inhibitors of NADPH oxidase 1 (NOX1): Purchased analogs 2.; format: functional
T1 sequence (Q9Y5S8 whole entry): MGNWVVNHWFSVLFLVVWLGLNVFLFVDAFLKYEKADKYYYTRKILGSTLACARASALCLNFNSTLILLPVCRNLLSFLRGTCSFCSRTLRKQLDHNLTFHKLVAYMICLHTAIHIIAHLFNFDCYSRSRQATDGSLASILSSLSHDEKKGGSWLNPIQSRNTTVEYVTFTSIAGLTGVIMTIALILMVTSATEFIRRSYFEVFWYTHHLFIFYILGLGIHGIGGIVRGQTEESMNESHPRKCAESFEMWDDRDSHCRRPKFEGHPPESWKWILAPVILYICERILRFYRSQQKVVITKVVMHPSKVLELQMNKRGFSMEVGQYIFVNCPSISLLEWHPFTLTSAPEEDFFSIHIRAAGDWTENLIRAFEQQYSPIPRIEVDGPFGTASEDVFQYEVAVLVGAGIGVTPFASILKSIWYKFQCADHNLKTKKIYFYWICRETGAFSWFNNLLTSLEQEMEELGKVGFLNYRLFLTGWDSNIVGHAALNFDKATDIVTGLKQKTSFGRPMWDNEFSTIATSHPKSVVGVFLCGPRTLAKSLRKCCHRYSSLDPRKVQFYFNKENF

Genome polyprotein [1] = molecular target: T2, Genome polyprotein (Hepatitis C virus, UniProt Q2Q167); test: HCV core protein dimerization inhibitors, dose response, biochemical, TR-FRET (AID 2159); parameters: species or system Hepacivirus hominis;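 further: blocks dimerization of HCV core protein measured by TR-FRET between tagged core106 pairs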
Bcl-2-related protein A1 = molecular target: T3, Bcl-2-related protein A1 (Mus musculus, UniProt Q07440); format: functional;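 further: confirmatory dose–response counterscreen on Bfl-1, used to check hits from a UBC13 polyubiquitin inhibitor campaign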
T3 sequence (Q07440 whole entry): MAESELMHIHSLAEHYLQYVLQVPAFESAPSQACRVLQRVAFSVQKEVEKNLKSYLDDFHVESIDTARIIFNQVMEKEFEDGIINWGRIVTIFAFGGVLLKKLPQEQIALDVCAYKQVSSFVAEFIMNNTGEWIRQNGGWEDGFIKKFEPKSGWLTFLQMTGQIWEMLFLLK

[2] = molecular target: T4, Ubiquitin-conjugating enzyme E2 N (Homo sapiens, UniProt P61088); format: functional
T4 sequence (P61088 whole entry): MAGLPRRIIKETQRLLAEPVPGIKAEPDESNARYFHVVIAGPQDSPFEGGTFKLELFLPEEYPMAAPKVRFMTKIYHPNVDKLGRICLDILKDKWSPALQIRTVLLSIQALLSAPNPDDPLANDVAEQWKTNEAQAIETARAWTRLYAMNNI

[3] = molecular target: T4, Ubiquitin-conjugating enzyme E2 N; format: functional; remark: listed apart in the source
Genome polyprotein [4] = molecular target: T2, Genome polyprotein; test: Late stage assay provider counterscreen results for the probe development effort to identify inhibitors of Hepatitis C Virus (HCV) core protein dimerization: Luminescence-based biochemical AlphaScreen assay to identify inhibitors of HCV core dimerization.; format: functional, Hepacivirus hominis
[5] = molecular target: T5, Calpain-2 catalytic subunit (Sus scrofa, UniProt P43367); test: pig calpain II inhibitor potency, dose response, biochemical, fluorogenic peptide substrate (AID 1420); format: functional
T5 sequence (P43367 whole entry): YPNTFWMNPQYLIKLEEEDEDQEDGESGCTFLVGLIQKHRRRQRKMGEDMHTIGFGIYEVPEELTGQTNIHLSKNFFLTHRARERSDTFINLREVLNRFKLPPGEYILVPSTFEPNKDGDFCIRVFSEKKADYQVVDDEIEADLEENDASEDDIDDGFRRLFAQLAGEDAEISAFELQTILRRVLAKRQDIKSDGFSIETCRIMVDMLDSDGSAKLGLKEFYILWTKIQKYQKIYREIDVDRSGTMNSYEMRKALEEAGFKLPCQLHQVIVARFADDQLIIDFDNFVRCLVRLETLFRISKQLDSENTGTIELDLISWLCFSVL

[6] = Vero cell cytotoxicity, dose response, cytotoxicity control for Vif-APOBEC3G degradation inhibitor project, Vero cells (AID 1117358); format: functional; settings: Human immunodeficiency virus 1, Vero
[7] = half-maximal inhibitory concentration for glucagon-like peptide-1 release, STC-1 cell line, dose-response (AID 1117345); format: functional, cell-based
[8] = Glucagon-like peptide 1 release potency, NCI-H716 cell line, dose-response, half-maximal inhibitory concentration (AID 1117344); format: functional, cell-based
[9] = molecular target: Ubiquitin carboxyl-terminal hydrolase BAP1 (Homo sapiens, UniProt Q92560); test: BAP1 deubiquitinase inhibitors, dose response, biochemical (AID 714); format: functional
Estrogen receptor beta [10] = molecular target: T6, Estrogen receptor beta (Homo sapiens, UniProt Q92731);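 further: recombinant ER-beta bound to coactivator SRC1 peptide in presence of estradiol agonist; inhibitors block coactivator peptide binding and lower the FRET signal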
Estrogen receptor beta [11] = molecular target: T6, Estrogen receptor beta; test: ERβ–SRC-3 coactivator interaction inhibitors, confirmation, orthogonal assay, biochemical, ELISA, streptavidin-HRP readout (AID 1060)
Protein Tat = Protein Tat (Human immunodeficiency virus type 1 group M subtype B (isolate HXB2)(HIV-1), UniProt P04608); format: functional;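 further: tat binding to TAR RNA read out by fluorescence polarization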
[12] = P. falciparum 3D7-ScDHODH growth inhibitors, dose response, SYBR Green, dry powder samples (AID 1159570); format: functional, cell-based;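 further: parasite growth measured after 72 hours of compound exposure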
[13] = HepG2 cell cytotoxicity, dose response, cytotoxicity control, plate reader, dry powder samples (AID 1159569); format: functional, cell-based;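 further: inhibitor potency with signal falling toward the positive control level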
[14] = P. falciparum Dd2 growth inhibitors, dose response, SYBR Green, cherry-picked samples (AID 1159567); format: functional, cell-based
[15] = P. falciparum Dd2 blood-stage growth inhibition, dose response, SYBR Green fluorescence, erythrocytes, dry powder, set 2 (AID 1159574); format: functional, cell-based
[16] = P. falciparum Dd2 growth inhibitors, dose response, SYBR Green, dry powder samples (AID 1159566); format: functional, cell-based;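 further: potency for growth inhibition with lower SYBR green DNA signal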
[17] = P. falciparum ATP4 D1247Y mutant growth inhibitors, dose response, NITD609-resistant line, SYBR Green, dry powder (AID 1159571); format: functional, cell-based;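 further: parasites synchronized at ring stage by sorbitol before testing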
[18] = molecular target: Luciferin 4-monooxygenase (Photinus pyralis, UniProt P08659); test: firefly luciferase enzyme inhibitors, dose response, biochemical, luminescence (AID 1891)
[19] = Luminescence Cell-Based Dose Confirmation HTS to Identify Inhibitors of Platelet Dense Granule Release. [Related pubchem assays: 1663 (Primary HTS), 1678 (Summary of Project)]; format: functional
[20] = Fluorescence Cell-Based Dose Response to Identify Inhibitors of Thrombin Receptor-Activating Peptide SFLLRN-Mediated P-Selectin Induction on Platelets. [Related pubchem assays: 1663 (Primary HTS), 1889 (retest at dose ), 1891 (counterscreen), 1678 (Project Summary)]; format: functional

T2 sequence (Q2Q167 whole entry): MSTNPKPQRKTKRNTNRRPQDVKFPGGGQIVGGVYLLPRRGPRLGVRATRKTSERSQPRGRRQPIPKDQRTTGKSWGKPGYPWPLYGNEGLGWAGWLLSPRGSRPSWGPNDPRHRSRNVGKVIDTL
T6 sequence (Q92731 whole entry): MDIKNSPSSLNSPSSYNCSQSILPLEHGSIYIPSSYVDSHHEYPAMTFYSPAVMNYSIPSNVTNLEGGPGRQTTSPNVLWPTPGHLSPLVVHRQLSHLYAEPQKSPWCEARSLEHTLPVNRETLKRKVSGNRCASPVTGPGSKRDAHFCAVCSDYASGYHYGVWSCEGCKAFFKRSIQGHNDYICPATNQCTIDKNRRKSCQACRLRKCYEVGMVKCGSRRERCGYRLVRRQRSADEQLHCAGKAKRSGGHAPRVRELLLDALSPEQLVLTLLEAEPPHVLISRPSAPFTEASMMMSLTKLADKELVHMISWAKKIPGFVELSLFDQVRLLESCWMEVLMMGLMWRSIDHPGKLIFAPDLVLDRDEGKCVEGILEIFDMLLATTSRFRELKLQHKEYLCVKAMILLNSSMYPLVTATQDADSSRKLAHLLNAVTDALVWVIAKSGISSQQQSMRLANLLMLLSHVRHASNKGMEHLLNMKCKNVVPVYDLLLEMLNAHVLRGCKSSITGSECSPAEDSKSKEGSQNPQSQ
Protein Tat, sequence (P04608 whole entry): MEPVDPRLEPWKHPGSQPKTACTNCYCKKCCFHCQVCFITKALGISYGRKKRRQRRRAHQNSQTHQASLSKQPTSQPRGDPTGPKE
Luciferin 4-monooxygenase, sequence (P08659 whole entry): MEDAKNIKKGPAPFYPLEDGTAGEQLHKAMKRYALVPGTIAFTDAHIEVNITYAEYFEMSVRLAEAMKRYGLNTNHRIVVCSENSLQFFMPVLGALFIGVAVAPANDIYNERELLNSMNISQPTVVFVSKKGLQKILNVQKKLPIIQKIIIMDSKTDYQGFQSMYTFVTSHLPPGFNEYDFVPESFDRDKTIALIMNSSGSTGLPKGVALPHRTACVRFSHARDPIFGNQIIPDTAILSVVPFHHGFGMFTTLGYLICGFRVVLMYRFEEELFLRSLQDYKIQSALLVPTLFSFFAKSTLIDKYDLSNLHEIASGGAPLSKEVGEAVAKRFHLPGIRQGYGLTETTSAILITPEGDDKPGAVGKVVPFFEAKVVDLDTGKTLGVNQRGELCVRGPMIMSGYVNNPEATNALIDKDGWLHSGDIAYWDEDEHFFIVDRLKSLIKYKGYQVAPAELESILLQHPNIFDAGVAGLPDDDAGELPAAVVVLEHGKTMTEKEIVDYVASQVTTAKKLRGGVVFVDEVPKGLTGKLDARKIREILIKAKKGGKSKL
Ubiquitin carboxyl-terminal hydrolase BAP1, sequence (Q92560 whole entry): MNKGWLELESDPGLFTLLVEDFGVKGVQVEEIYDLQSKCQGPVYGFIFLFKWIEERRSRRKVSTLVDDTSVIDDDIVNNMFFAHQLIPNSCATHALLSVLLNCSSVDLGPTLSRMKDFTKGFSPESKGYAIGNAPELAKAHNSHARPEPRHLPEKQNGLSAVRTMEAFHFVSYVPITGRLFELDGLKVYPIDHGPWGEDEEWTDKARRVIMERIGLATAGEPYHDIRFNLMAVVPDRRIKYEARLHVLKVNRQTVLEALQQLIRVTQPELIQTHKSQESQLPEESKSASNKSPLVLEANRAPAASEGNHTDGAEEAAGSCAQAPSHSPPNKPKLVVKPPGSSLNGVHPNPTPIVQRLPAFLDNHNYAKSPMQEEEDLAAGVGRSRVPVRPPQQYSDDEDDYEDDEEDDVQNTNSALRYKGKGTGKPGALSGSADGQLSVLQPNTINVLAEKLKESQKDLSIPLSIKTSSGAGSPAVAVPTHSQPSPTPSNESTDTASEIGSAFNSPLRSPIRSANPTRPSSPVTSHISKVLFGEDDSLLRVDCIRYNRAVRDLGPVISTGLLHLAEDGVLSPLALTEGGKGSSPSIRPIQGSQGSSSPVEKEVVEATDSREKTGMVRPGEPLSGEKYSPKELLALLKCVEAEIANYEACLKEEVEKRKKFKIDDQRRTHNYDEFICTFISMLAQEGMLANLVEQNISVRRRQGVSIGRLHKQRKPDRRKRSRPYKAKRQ

SMILES: S=C(NNC(=S)Nc1ccccc1)Nc1ccccc1
- IC50 (NADPH oxidase 1): 0.321 µM (active)

SMILES: Cc1cc(O)c(C(C)C)cc1Cl [CHLOROTHYMOL]
- IC50 [7]: 14.1 µM (inactive)
- IC50 [8]: 26.5 µM (inactive)

SMILES: COc1ccc(S(=O)(=O)N(C)C[C@@H]2OCc3ccccc3-c3c(n(C)c4ccccc34)C(=O)N([C@@H](C)CO)C[C@@H]2C)cc1
- AC50 [12]: 0.126 µM (active)
- AC50 [13]: 84.3 µM (active)
- AC50 [14]: 0.689 µM (active)
- AC50 [15]: 0.853 µM (active)
- AC50 [16]: 0.0794 µM (active)
- AC50 [17]: 0.115 µM (active)

SMILES: CCC(CC)=N/N=C/c1c(O)n(CC)c2cc(C3=NNC(=O)CC3)ccc12
- EC50 [18]: > 112 µM (not active)
- EC50 [19]: 2.71 µM (active)
- EC50 [20]: < 0.3 µM (active)

The next lines start with results.

- IC50 (Genome polyprotein [1]): 9.87 µM (active)
- IC50 (Bcl-2-related protein A1): > 20 µM (inactive)
- IC50 [2]: 13.2 µM (active)
- IC50 [3]: > 20 µM (inactive)
- IC50 (Genome polyprotein [4]): 5 µM (active)
SMILES: Cc1ccc(Cc2c(C)nc3nc(SCC(=O)NCCCN4CCCCCC4)nn3c2C)cc1

- IC50 [5]: 3.17 µM (not active)
SMILES: O=[N+]([O-])c1ccc(NCCCNS(=O)(=O)c2ccc(Cl)cc2)c(Cl)c1
- CC50 [6]: > 40 µM (active)

- IC50 [9]: 22.6 µM (active)
- IC50 (Estrogen receptor beta [10]): > 50 µM (not active)
- IC50 (Estrogen receptor beta [11]): > 50 µM (not active)
- IC50 (Protein Tat): > 100 µM (active)
SMILES: Cc1ccc(-c2nc3s/c(=C\c4ccco4)c(=O)n3n2)cc1
